Measured values as given in US20250367160A1, “USE OF GUAIJAVERIN IN PREPARATION OF EYE PROTECTION PRODUCT” (Innovation Center of Yangtze River Delta, ZJU, priority 2024, published 2025).

Experiments:
T-AOC = assay: Mouse retinal optical damage model, plasma total antioxidant capacity (T-AOC); format: in vivo, BALB/c mice; details: gavage once a day 10 days, vs model group, FIG. 7
Experimental: A self-made light box with a length of 108 cm, a width of 50 cm, and a height of 72 cm was used, and the light intensity was measured by a light meter to be 8,500-10,000 Lux. After eye examination, 60 mice with normal eyeballs were selected and randomly divided into a control group, a model group, a lutein group (100 mg/kg), a guaijaverin low-dose group (50 mg/kg), and a guaijaverin high-dose group (100 mg/kg), with 12 mice in each group. Lutein and guaijaverin were suspended in 5% sodium carboxymethylcellulose (CMC-Na) solution and administered by gavage once a day. The mice in the control and model groups were administered by gavage with an equal volume of 5% CMC-Na for 10 consecutive days. 10 days later, the mice in the model group, lutein group, guaijaverin low-dose group, and guaijaverin high-dose group were kept in the dark for 36 h, atropine eye gel was applied to both eyes of the mice to induce pupil dilation, and the mice were placed in the self-made lighting device of 8,000-10,000 Lux (the control group was raised in a normal environment) and given continuous light for 24 h. […]
The mouse blood was collected in an anticoagulant tube and centrifuged at 3,000 rpm for 10 min at 4° C. to collect the upper plasma. The T-AOC content was determined according to the method provided by the kit manufacturer.

Wild-type AB zebrafish = assay: Determination of maximum test concentration (MTC) in zebrafish blue light eye damage model; format: in vivo; details: 28° C.; for Death count / Development status (phenotype) / Mortality: aqueous, n = 30
Experimental: Wild-type AB zebrafish at 1 day post-fertilization (1 dpf) were randomly selected and irradiated with blue light after membrane rupture to establish the zebrafish blue light eye damage model. Model zebrafish with desirable development status were selected at 3 dpf and randomly distributed in 6-well plates, with 30 zebrafish in each well (experimental group) were treated. Different concentrations of guaijaverin (concentrations shown in Table 1) were administered aqueously, and a normal control group and a model group were set up, where a volume of each well was 3 mL. After treatment at 28° C. for 1 d, the MTC of guaijaverin on model zebrafish was determined.

[1] = tested on: Heme Oxygenase-1 (HO-1 protein); assay: Mouse retinal optical damage model, Western blot of HO-1 protein in retina; format: in vivo, BALB/c mice; details: high-dose 100 mg/kg, gavage once a day 10 days, vs model group, FIG. 9
Experimental: A self-made light box with a length of 108 cm, a width of 50 cm, and a height of 72 cm was used, and the light intensity was measured by a light meter to be 8,500-10,000 Lux. After eye examination, 60 mice with normal eyeballs were selected and randomly divided into a control group, a model group, a lutein group (100 mg/kg), a guaijaverin low-dose group (50 mg/kg), and a guaijaverin high-dose group (100 mg/kg), with 12 mice in each group. Lutein and guaijaverin were suspended in 5% sodium carboxymethylcellulose (CMC-Na) solution and administered by gavage once a day. The mice in the control and model groups were administered by gavage with an equal volume of 5% CMC-Na for 10 consecutive days. […]
The mouse retina was taken, and 100-150 μL of RIPA lysis buffer was added for every 10 mg of tissue. After sufficient lysis, the protein content was detected using a BCA protein quantification kit. […] The bands were analyzed by the supporting software of the red laser two-color imaging system, with GAPDH protein expression as an internal reference.

mouse retina = assay: Mouse retinal optical damage model, H&E histopathological evaluation of retina; format: in vivo, BALB/c mice; details: for morphology and thickness of the outer nuclear layer retina and inner nuclear layer retina (H&E): gavage once a day 10 days, vs model group, FIG. 5
Experimental: A self-made light box with a length of 108 cm, a width of 50 cm, and a height of 72 cm was used, and the light intensity was measured by a light meter to be 8,500-10,000 Lux. After eye examination, 60 mice with normal eyeballs were selected and randomly divided into a control group, a model group, a lutein group (100 mg/kg), a guaijaverin low-dose group (50 mg/kg), and a guaijaverin high-dose group (100 mg/kg), with 12 mice in each group. Lutein and guaijaverin were suspended in 5% sodium carboxymethylcellulose (CMC-Na) solution and administered by gavage once a day. The mice in the control and model groups were administered by gavage with an equal volume of 5% CMC-Na for 10 consecutive days. 10 days later, the mice in the model group, lutein group, guaijaverin low-dose group, and guaijaverin high-dose group were kept in the dark for 36 h, atropine eye gel was applied to both eyes of the mice to induce pupil dilation, and the mice were placed in the self-made lighting device of 8,000-10,000 Lux (the control group was raised in a normal environment) and given continuous light for 24 h. After the light exposure, the mice in each group had their eyeballs removed to draw blood and eyeball tissue collected for subsequent experimental tests.
Eyeball tissues of 6 mice were collected from each group for Hematoxylin-eosin staining (H&E) and TUNEL fluorescence staining of apoptotic cells, and the pathological changes of mouse eyeball tissues were observed using an optical microscope (completed by Wuhan Servicebio Biotechnology Co., Ltd.).
a) Dewaxing of paraffin sections to water: the sections were sequentially placed in environmental-friendly dewaxing solution I for 20 min, environmental-friendly dewaxing solution II for 20 min, anhydrous ethanol I for 5 min, anhydrous ethanol II for 5 min, and 75% alcohol for 5 min, and then wash with tap water.
b) Pretreatment: the sections were placed into H&E high-definition constant staining pretreatment solution for 1 min. […]
f) The sections were examined under a microscope and the images were collected and analyzed.

O=c1c(O[C@@H]2OC[C@H](O)[C@H](O)[C@H]2O)c(-c2ccc(O)c(O)c2)oc2cc(O)cc(O)c12 [Guaijaverin, guaijaverin]
plasma T-AOC level (T-AOC; high-dose 100 mg/kg): significantly increase the T-AOC level
plasma T-AOC level (T-AOC; low-dose 50 mg/kg): significantly increase the T-AOC level
Death count (Wild-type AB zebrafish; 125 μg/mL, 1 d): 0 per fish
Development status (phenotype) (Wild-type AB zebrafish; 125 μg/mL, 1 d): Status similar to that of model
Mortality (Wild-type AB zebrafish; 125 μg/mL, 1 d): 0%
Death count (Wild-type AB zebrafish; 150 μg/mL, 1 d): 0 per fish
Development status (phenotype) (Wild-type AB zebrafish; 150 μg/mL, 1 d): Status similar to that of model
Mortality (Wild-type AB zebrafish; 150 μg/mL, 1 d): 0%
Dissolution (Wild-type AB zebrafish; 200 μg/mL in fish water): Precipitated
Death count (Wild-type AB zebrafish; 200 μg/mL, 1 d): 0 per fish
Development status (phenotype) (Wild-type AB zebrafish; 200 μg/mL, 1 d): Status similar to that of model
Mortality (Wild-type AB zebrafish; 200 μg/mL, 1 d): 0%
Dissolution (Wild-type AB zebrafish; 250 μg/mL in fish water): Precipitated
Death count (Wild-type AB zebrafish; 250 μg/mL, 1 d): 0 per fish
Development status (phenotype) (Wild-type AB zebrafish; 250 μg/mL, 1 d): Status similar to that of model
Mortality (Wild-type AB zebrafish; 250 μg/mL, 1 d): 0%
Dissolution (Wild-type AB zebrafish; 500 μg/mL in fish water): Precipitated
Death count (Wild-type AB zebrafish; 500 μg/mL, 1 d): 0 per fish
Development status (phenotype) (Wild-type AB zebrafish; 500 μg/mL, 1 d): Status similar to that of model
Mortality (Wild-type AB zebrafish; 500 μg/mL, 1 d): 0%
Dissolution (Wild-type AB zebrafish; 1000 μg/mL in fish water): Precipitated
Death count (Wild-type AB zebrafish; 1000 μg/mL, 1 d): 0 per fish
Development status (phenotype) (Wild-type AB zebrafish; 1000 μg/mL, 1 d): Status similar to that of model
Mortality (Wild-type AB zebrafish; 1000 μg/mL, 1 d): 0%
Dissolution (Wild-type AB zebrafish; 2000 μg/mL in fish water): Precipitated
Death count (Wild-type AB zebrafish; 2000 μg/mL, 1 d): 0 per fish
Development status (phenotype) (Wild-type AB zebrafish; 2000 μg/mL, 1 d): Status similar to that of model
Mortality (Wild-type AB zebrafish; 2000 μg/mL, 1 d): 0%
MTC (maximum test concentration) (Wild-type AB zebrafish; model zebrafish, 1 d): 150 µg/mL
expression of HO-1 protein in the retinal tissue [1]: significantly reduced the expression of HO-1 protein
anti-optical damage eye protection efficacy compared with lutein (H&E) (mouse retina; high-dose 100 mg/kg vs lutein 100 mg/kg): better anti-optical damage eye protection efficacy than lutein
morphology and thickness of the outer nuclear layer retina and inner nuclear layer retina (H&E) (mouse retina; high-dose 100 mg/kg): increase the thickness of the outer nuclear layer retina and inner nuclear layer retina
morphology and thickness of the outer nuclear layer retina and inner nuclear layer retina (H&E) (mouse retina; low-dose 50 mg/kg): increase the thickness of the outer nuclear layer retina and inner nuclear layer retina
